This note sets out measurements from PubChem BioAssay (NCI).

Assay in all cases: NCI-60 cell line screen, 48 h
Experiment [1] deals with BT-549 breast.
In experiment [2] the test system is DU-145 prostate.
For experiment [3], the system named is HCT-15 colon.
In experiment [4] the test system is HOP-62 NSCLC.
The subject of experiment [5] is HOP-92 NSCLC.
The test system of experiment [6] is IGROV1 ovarian.
The subject of experiment [7] is KM12 colon.
The subject of experiment [8] is M14 melanoma.
The subject of experiment [9] is MDA-N.
Experiment [10] deals with NCI-H460 lung.
Experiment [11] concerns NCI-H522 lung.
Experiment [12] has as its system OVCAR-5 ovarian.
The test system of experiment [13] is RPMI-8226 leukemia.
Experiment [14] relates to SNB-19 CNS.
Experiment [15] has as its system SNB-75 CNS.
The subject of experiment [16] is SW-620 colon.
The test system of experiment [17] is U251 CNS.
Experiment [18] relates to UACC-257 melanoma.
The subject of experiment [19] is CCRF-CEM leukemia.

Each structure is given as a SMILES string. Values joined by “and” are separate entries in the source; they are usually repeats but may differ in a detail not shown here. Identical values can stand only once.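 Growth conditions: 96-well plates. Treatment: test compound, 48 hours, 5 concentrations. Analysis: linear interpolation between bracketing concentrations; unreached endpoints set to highest concentration. TGI denotes the concentration required for complete inhibition of growth.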 Where a SMILES comes first, the peptide text is derived from it. The star is where a group is joined. Ethyl(2-NMe3+) = C[N+](C)(C)CC*; Boc = CC(C)(C)OC(=O)* Where only a bound is given, the exact number is not on record here.

For the compound `CC(C)(C)NCC(O)c1ccc(O)c(CO)n1` (stereo not drawn), the TGI in [1], in experiment [2], in experiment [3], in experiment [4], in experiment [5] and in [6] was over 100 µM throughout. The TGI in experiment [7], in experiment [8], in experiment [9], in experiment [10], in experiment [11] and in experiment [12] was over 100 µM in each case. For the same compound, the TGI in [13], in experiment [14], in experiment [15], in experiment [16], in experiment [17] and in experiment [18] was over 100 µM throughout.
For the compound `C/C(=N\NC(=S)N1CCN(C)CC1)c1nc2ncccc2[nH]1`, the TGI in experiment [1], in experiment [19], in experiment [3], in experiment [4], in experiment [5] and in [6] was over 100 µM in each case. Also, the TGI in experiment [7], in experiment [8], in experiment [10], in experiment [11], in [12] and in [13] was over 100 µM each time. Moreover, the TGI in experiment [14], in experiment [15], in experiment [16], in experiment [17] and in [18] was over 100 µM each time.
Regarding `C[N+]1(Cc2ccc(Cl)c(Cl)c2)CCCC1C1CCCN(Cc2ccc(Cl)c(Cl)c2)C1` (stereo not drawn), the TGI in experiment [1], in experiment [2], in experiment [3], in experiment [4], in experiment [5] and in experiment [6] was over 100 µM throughout. Further, the TGI in experiment [7], in [8], in [9], in [10], in experiment [11] and in experiment [12] was over 100 µM throughout. For the same compound, the TGI in [13], in [14], in [15], in experiment [16], in experiment [17] and in experiment [18] was over 100 µM in each case.
As for `C/C=C(\C)C(=O)OC1C(C)=C2C(C1OC(=O)CCCC)C(C)(OC(C)=O)CC(OC(=O)CCCC)C1(O)C2OC(=O)C1(C)O` (stereo not drawn), the TGI was over 100 µM in experiment [1]; over 100 µM in experiment [19]; over 100 µM in experiment [2]; over 100 µM in experiment [3]; 3.67 µM in [4]; over 100 µM in [5]. Besides, the TGI was over 100 µM in [6]; over 42.5 µM in experiment [7]; 4.53 µM in [8]; over 100 µM in experiment [9]; over 100 µM in [10]; 7.02 µM in experiment [11]. For the same compound, the TGI in experiment [12] is over 93.3 µM; in experiment [13], over 21.1 µM; in experiment [14], over 100 µM; in [15], 48.6 µM; in [17], over 100 µM; in experiment [18], over 100 µM.
Regarding `N=[N+]=CC(=O)CCC(NC(=O)C(CCC(=O)C=[N+]=N)NC(=O)CCC(N)C(=O)O)C(=O)O` (stereo not drawn), the TGI in experiment [19] was over 100 µM; in experiment [3], over 100 µM; in experiment [4], over 100 µM; in experiment [5], over 100 µM; in [6] it was over 100 µM; in experiment [7] it was over 31.6 µM. Besides, the TGI in experiment [10], in [11], in experiment [12], in experiment [13], in experiment [14] and in [15] was over 100 µM each time. In addition, the TGI in experiment [16], in experiment [17] and in [18] was over 100 µM in each case.
Take `OC(c1cc(-c2ccc(Cl)cc2)nc2ccccc12)C1CCCCN1` (stereo not drawn): the TGI in experiment [1] is 16 µM; in [19], 2.52 µM; in [2], 3.45 µM; in experiment [3], 6.11 µM; in experiment [4], 3.13 µM; in [5] it was 12.2 µM. For the same compound, the TGI in experiment [7] is 5.42 µM; in experiment [8], 3.37 µM; in experiment [9], 3.7 µM; in [10], 4.76 µM; in [11], 2.77 µM; in experiment [12], 4.94 µM. For the same compound, the TGI in experiment [13] was determined as 3.12 µM; in [14] it was 37.6 µM; in experiment [16], 3.69 µM; in experiment [17], 3.25 µM; in [18], 9.71 µM.
As to `Cc1ccc(/C=C2\CN(C)CC3C2=NN(c2ccccc2)C3c2ccc(C)cc2)cc1` (stereo not drawn), the TGI in [1] is over 100 µM; in experiment [19], 95.7 µM; in experiment [2] it was over 100 µM; in experiment [3], over 100 µM; in experiment [4] it was over 100 µM; in [5] it was over 100 µM. Moreover, the TGI in experiment [6], in [7], in experiment [8], in experiment [9], in [10] and in experiment [11] was over 100 µM each time. In addition, the TGI in [14], in [16], in experiment [17] and in experiment [18] was over 100 µM in each case.
Take `C[n+]1ccc(Nc2ccc(NC(=O)c3ccc(Nc4cc[n+](C)c5ccc([N+](=O)[O-])cc45)cc3[N+](=O)[O-])cc2)cc1`: the TGI in experiment [19] was over 100 µM; in experiment [3], over 100 µM; in [4] it was 84.9 µM and > 100 µM; in experiment [5] it was 81.7 µM and > 77.1 µM; in experiment [6], over 100 µM; in experiment [7], over 100 µM. In addition, the TGI in experiment [8], in experiment [10], in experiment [11], in experiment [12], in experiment [13] and in [14] was over 100 µM each time. In addition, the TGI in experiment [15] is over 100 µM; in experiment [16], over 100 µM; in [17], over 84.6 µM; in [18], over 100 µM.
Consider `CC1(c2cccc(Cl)c2)CC(c2cccc(Cl)c2)=C(C#N)C(=C(C#N)C#N)N1` (stereo not drawn), for which the TGI in [1] is 51.2 µM; in experiment [19], over 100 µM; in experiment [2], 29.3 µM; in experiment [3] it was 33.8 µM; in experiment [4] it was 41.3 µM; in experiment [5], 21.4 µM. The TGI worked out at 31.8 µM in [6]; 39 µM in experiment [7]; 31.9 µM in experiment [8]; 39.7 µM in [9]; 94.3 µM in [10]; 46.4 µM in experiment [12]. In addition, the TGI in [13] is 59.4 µM; in [14] it was 39.9 µM; in [15], 34.3 µM; in experiment [16], over 100 µM; in [17] it was 37.8 µM; in experiment [18], 42 µM.
On to `C1CSC(=[N+]2CC[N+](=C3SCCS3)CC2)S1`, for which the TGI in [19], in experiment [3], in [4], in [5], in experiment [6] and in [7] was over 100 µM each time. Moreover, the TGI in [8], in [10], in experiment [11], in [12], in [13] and in experiment [14] was over 100 µM throughout. For the same compound, the TGI in experiment [15], in [16], in experiment [17] and in [18] was over 100 µM each time.
On to `Cc1cc2nc(N3C(=O)/C(=C/c4ccccc4S)N=C3c3ccccc3)sc2cc1C`, for which the TGI in experiment [1] was over 100 µM; in experiment [19], 46.6 µM; in experiment [2], over 100 µM; in [3] it was over 100 µM; in [4], over 100 µM; in experiment [5], 82.8 µM. Also, the TGI was over 100 µM in experiment [6]; over 100 µM in [7]; over 100 µM in experiment [8]; 39.1 µM in experiment [9]; over 100 µM in experiment [10]; over 100 µM in [12]. Also, the TGI in [13], in [14], in experiment [15], in experiment [16], in experiment [17] and in experiment [18] was over 100 µM each time.
For the compound `C=CC[C@@]1([C@H](C=C)COCc2ccc(OC)cc2)CC[C@]2(C)OC(C)(C)[C@@H](c3ccccc3)N2C1=S`, the TGI in [1], in experiment [19], in [2], in experiment [3], in experiment [4] and in [5] was over 100 µM throughout. Also, the TGI in [7], in experiment [8], in experiment [9], in experiment [10], in [11] and in experiment [12] was over 100 µM in each case. Moreover, the TGI in experiment [13], in experiment [14], in experiment [15], in experiment [16], in experiment [17] and in experiment [18] was over 100 µM in each case.
For the compound `COC(=O)c1cc2cc3c(c(O)c2c(=O)o1)O[C@@]1(Oc2c(O)c4c(c(O)c2[C@H]1OC1CC(OC)C(O)C(C)O1)C(=O)C=C(OC)C4=O)[C@H](O)C3` (stereo partly drawn), the TGI in experiment [1] was 4.93 µM; in experiment [2], 7.87 µM; in experiment [3] it was over 19.7 µM; in experiment [4] it was 5.37 µM; in experiment [5], over 23.6 µM; in experiment [6], 7.17 µM. Also, the TGI is 9.51 µM in experiment [7]; over 100 µM in [8]; over 100 µM in experiment [9]; over 21.6 µM in [10]; 5.19 µM in [11]; over 24.3 µM in experiment [12]. Also, the TGI in experiment [13] was 4.44 µM; in experiment [14], 12.6 µM; in experiment [16], over 39.8 µM; in experiment [18], 14.1 µM.
On to `Nc1c(C(=O)Nc2ccc(C3=NCCN3)cc2)cccc1C(=O)Nc1ccc(C2=NCCN2)cc1`, for which the TGI in experiment [19], in experiment [3], in [5], in [6], in experiment [7] and in experiment [10] was over 100 µM throughout. For the same compound, the TGI in experiment [11], in [12], in experiment [13], in experiment [14], in experiment [15] and in experiment [16] was over 100 µM in each case. In addition, the TGI in experiment [17] and in experiment [18] was over 100 µM each time.
Take `CC(NC(=O)C(Cc1ccc(OCC[N+](C)(C)C)cc1)NC(=O)OC(C)(C)C)C(=O)NC(Cc1ccccc1)C(=O)NCC(N)=O` (stereo not drawn) (Boc-Y(Ethyl(2-NMe3+))AFG-NH2; configuration not given here): the TGI in [1] is 45.8 µM; in [2], over 100 µM; in [3] it was over 100 µM; in experiment [4], 14.5 µM; in [5] it was 29.6 µM; in experiment [6] it was 58.4 µM. For the same compound, the TGI in [7] was over 100 µM; in [8], over 100 µM; in [9], over 100 µM; in experiment [10], over 100 µM; in [11] it was over 100 µM; in experiment [12] it was 59.5 µM. Further, the TGI is over 100 µM in experiment [13]; 34.3 µM in experiment [14]; 30.3 µM in experiment [15]; over 100 µM in experiment [16]; 12.8 µM in [17]; over 100 µM in experiment [18].
